Three molecules from PMC6271559, “Synthesis and Evaluation of 2,4-Disubstituted Quinazoline Derivatives with Potent Anti-Angiogenesis Activities” (Molecules, 2014) can be followed below.

Read-outs that look alike come from different tables or passages of the source.

Data set [1] concerns chick embryo chorioallantoic membrane (CAM). Description: CAM angiogenesis assay. It is filed as in vivo. Conditions: 30 μg/10 μL on filter disc, 48 h. As for the experimental part:
CAMs treated with 0.9% NaCl solution (negative control) were surrounded by all antoic vessels as newly-formed capillaries converging radially toward the sponge in a “spoked wheel” pattern (number of vessels 24 ± 3).
The in vivo CAM angiogenesis model as initially described by Folkman and then modified by Maragoudakis was used. Fertilized chicken eggs were used after incubating them for 8 days. A 1 cm × 1 cm window was made in the shell to create a pocket to expose the CAM. A filter disc with 0.9% NaCl solution or 30 μg/10 μL of compounds was then placed upon the CAM from 10 eggs per treatment and 48 h later, the CAMs were fixed with 4% paraformaldehyde and the vessel number from three random fields around the filter disc were pictured using a microscope.

In data set [2] the test system is CNE-2 (human nasopharyngeal cancer) cells. Put plainly: MTT cytotoxicity assay, CNE-2. The class given is cell-based. Conditions: 48 h, mean of three independent assays. The text has this: (§1) In the early 80s, scientists proposed anti-angiogenesis as a potential target in cancer therapy. Much research in the past 30 years has targeted tumor angiogenesis as a means of inhibiting the process of tumor-caused blood vessel formation. Endothelial cells, which come from the inner lining of blood vessels, makes up a fundamental part of new blood vessels as well as pre-existing ones. A complete angiogenesis process includes the proliferation, migration, and differentiation of endothelial cells, so a great deal of angiogenesis inhibitors discovered to date target endothelial cells. We thus employed a cell proliferation assay to evaluate the cytotoxicity of quinazoline derivatives against both normal (HUVEC) and tumor cell lines (CNE-2, PC-3, and SMMC-7721 cell lines) so we can screen some molecules that have cytotoxicity against tumor cells but low cytotoxicity against HUVECs. Meanwhile, an appropriate concentration range of these compounds could be determined to further study their inhibitive effects against the proliferation, migration, and differentiation of HUVECs. The cytotoxic activities of quinazoline derivatives against human tumor cell lines CNE-2 (human nasopharyngeal cancer), PC-3 (human prostatic carcinoma), SMMC-7721 (human liver cancer) and Human Umbilical Vein Endothelial Cells (HUVECs) were determined by using the MTT cytotoxicity assay.
(§2) HUVEC, CNE-2, PC-3, and 7721 cell lines were seeded on 96-well plates at a concentration of 5,000 cells per well and exposed to various concentrations of quinazoline derivatives. After 48 h of treatment at 37 °C in a humidified atmosphere of 5% CO2, 5 mg/mL MTT solution (10 μL) was added to each well and further incubated for 4 h. Each well was then added dimethyl sulfoxide (DMSO, 100 μL), and the optical density (OD) was recorded at 490 nm. All measurements were done in triplicate, and the IC50 values were derived from the mean OD values of the triplicate tests versus drug concentration curves.

Data set [3] deals with PC-3 (human prostatic carcinoma) cells. Description: MTT cytotoxicity assay, PC-3. The class given is cell-based. Conditions: Prostatic carcinoma cell, 48 h, mean of three independent assays.
Text: as §1, §2
Background: Tetrazolium assays rely on reduction of a dye to a coloured formazan, in cell work by metabolically active cells.

Data set [4] can be described thus: MTT cytotoxicity assay, HUVEC. The settings on record: human, HUVEC (human umbilical vein endothelial cells), mean of three independent assays. It is filed as cell-based.
Text: as §1, §2

Data set [5] deals with SMMC-7721 (human liver cancer) cells. Put plainly: MTT cytotoxicity assay, SMMC-7721. It is filed as cell-based. Conditions: 48 h, mean of three independent assays.
Text: as §1, §2

In the next data set the test system is HUVEC migration. Put plainly: HUVEC migration (wounding) assay. The class given is cell-based, human. The settings on record: 15 μM and 30 μM, 24 h. Here is the method: Compounds were tested at concentrations of both 15 μM and 30 μM, and all seven compounds tested in this assay could inhibit HUVEC migration.
The HUVEC cell line was seeded on a pre-treated 48-well culture plate at a concentration of 2 × 10^4 cells per well in a volume of 200 μL, and a portion of the cell monolayer was scraped off with a sterile disposable rubber policeman. After the DMEM medium was removed, the cells in each well were then washed three times with PBS (phosphate-buffer saline), and fresh medium was added to each well. The wells were then tested after incubation for 24 h with or without quinazoline derivatives at various concentrations. Two random pictures were taken for each wound using a microscope. The area of the migrations was measured using Photoshop CS3. All measurements were done in triplicate, and the experiments were done at least three times.

Data set [6] concerns HUVEC adhesion to collagen. Put plainly: HUVEC adhesion assay on type I collagen. The class given is cell-based, human. Conditions: Homo sapiens, HUVEC, adhesion of HUVEC on collagen, 37 °C. An excerpt:
A perfect angiogenesis inhibitor must be show lower toxicity toward HUVECs, while showing high inhibitive capability towards the proliferation, migration, and differentiation of HUVECs. To assess the inhibitory effects of 2,4-disubstituted quinazoline derivatives, three assays were used: HUVEC adhesion assay, HUVEC migration assay and CAM assay. Firstly, to test the inhibitory effects of quinazoline derivatives on the attachment of endothelial cells to type I collagen, cell adhesion assays were carried out.
Cell adhesion assay was carried out by a reported method with slight modification. Wells of a 96-well plate were coated at room temperature overnight with rat trail tendon collagen type I (2 μg) in PBS in a final volume of 100 μL. The wells were washed three times with PBS ([…]) and then blocked with 0.2% bovine serum albumin (BSA) in PBS ([…]) for 2 h at 37 °C in a cell culture incubator. The wells were then washed three times with PBS ([…]). HUEVCs were detached from the dish, resuspended in DMEM, and added (50 μL, 10^4 cells/mL) to each well followed by the related compounds (50 μL) at various concentrations. The plates were incubated for 1 h or 3 h at 37 °C and then washed three times with PBS (100 μL). The attached cells were fixed and stained with 0.2 % crystal violet in 20% methanol for 10 min, then washed three times with PBS ([…]). The cells were solubilized by 2% SDS and the OD was measured at 570 nm. Attachment was determined by both 1 and 3 h as described above. Each compound was tested in triplicate and each experiment was repeated three times.

[7] abbreviates: 1 h, 1 h, read-out: 1 h Inhibition Rate % Dose 15 μM.
Where [8] appears, read: 1 h, 1 h, read-out: 1 h Inhibition Rate % Dose 30 μM.
[9] abbreviates: 3 h, 3 h, read-out: 3 h Inhibition Rate % Dose 15 μM.
The mark [10] stands for this setting: 3 h, 3 h, read-out: 3 h Inhibition Rate % Dose 30 μM.

A word on the IC50: it is the concentration at which inhibition is half-maximal. The low end stands for inhibition by little substance, the high end for a need for much substance. The melting point is the temperature, or range, at which the solid turns liquid. The inhibition is the drop in the measured response relative to a control, in per cent.

Regarding `CN(C)CCCNc1nc(-c2ccccc2NC(=O)CCN2CCN(C)CC2)nc2ccccc12` [Compound 11d, N-(2-(4-(3-(Dimethylamino)propylamino)quinazolin-2-yl)phenyl)-3-(4-methylpiperazin-1-yl)propane-mide], the melting point lay in the range of 167 to 168 °C. Also, the “inhibition of angiogenesis in CAM assay” value in data set [1] is listed as “excellent inhibition of angiogenesis”. The molecule also gave an IC50 in data set [2] of 9.3 ± 0.2 µM. Inhibition in data set [3] was half-maximal at 9.8 ± 0.3 µM (IC50). This molecule displayed an IC50 at 48 h in data set [4] of 47.2 ± 0.2 µM. The same molecule gave an IC50 in data set [5] of 10.9 ± 0.2 µM. Also, the “inhibition of HUVEC migration” value in the data set on HUVEC migration is “best inhibitory activity”. Further, the inhibition at 15 µM in data set [6] (setting [7]) amounted to 47.4 ± 0.1%. Further, in data set [6] (setting [8]), the inhibition at 30 µM worked out at 65.8 ± 0.2%. In data set [6] (setting [9]), the inhibition at 15 µM is 53.3 ± 0.3%. For the same molecule, the inhibition at 30 µM in data set [6] (setting [10]) stood at 71.2 ± 0.1%.

`CN(C)CCCNc1nc(-c2ccccc2NC(=O)CCCN2CCN(C)CC2)nc2ccccc12` [Compound 12d, N-(2-(4-(3-(Dimethylamino)propylamino)quinazolin-2-yl)phenyl)-4-(4-methylpiperazin-1-yl)butanami-de]: the melting point lay in the range of 155 to 157 °C. For the same molecule, the “inhibition of angiogenesis in CAM assay” value in data set [1] is given as “excellent inhibition of angiogenesis”. Moreover, half-maximal inhibition in data set [2] (IC50) was put at 11.4 ± 0.1 µM. In addition, it took 10.9 ± 0.2 µM to reach half-maximal inhibition in data set [3] (IC50). In data set [4], this molecule came in with an IC50 at 48 h of 40.2 ± 0.2 µM. Moreover, the IC50 in data set [5] was 10.3 ± 0.5 µM. Also, the inhibition at 15 µM in data set [6] (setting [7]) is 46.8 ± 0.2%. Also, in data set [6] (setting [8]), the inhibition at 30 µM stood at 63.7 ± 0.2%. Further, in data set [6] (setting [9]), the inhibition at 15 µM stood at 47.5 ± 0.3%. Also, the inhibition at 30 µM in data set [6] (setting [10]) was 63.4 ± 0.3%.

In the case of `CN(C)CCCNc1nc(-c2ccccc2NC(=O)CCCN2CCOCC2)nc2ccccc12` [Compound 12e, N-(2-(4-(3-(Dimethylamino)propylamino)quinazolin-2-yl)phenyl)-4-morpholinobutanamide], the melting point fell in the range of 152 to 154 °C. Half-maximal inhibition in data set [2] (IC50) required 20.6 ± 0.2 µM. Besides, in data set [3], the IC50 was found to be 21.9 ± 0.2 µM. In addition, half-maximal inhibition in data set [4] (IC50 at 48 h) required 76.3 ± 0.2 µM. In data set [5], the midpoint of inhibition, the IC50, lay at 20.8 ± 0.3 µM. The inhibition at 15 µM in data set [6] (setting [7]) came out at 26.5 ± 0.2%. In addition, in data set [6] (setting [8]), the inhibition at 30 µM turned out to be 34.7 ± 0.2%. Moreover, the inhibition at 15 µM in data set [6] (setting [9]) worked out at 17.2 ± 0.4%. Besides, in data set [6] (setting [10]), the inhibition at 30 µM stood at 39.4 ± 0.2%.
